Test results from ChEMBL document CHEMBL1146853, “Proton dissociation is important to understanding structure-activity relationships of gallic acid antioxidants” (Bioorg Med Chem Lett, 2006).

Columns and labels:
[1] = system: Radical scavenging activity; experiment: DPPH radical scavenging activity in ethanol solution; format: functional
[2] = system: Radical scavenging activity; experiment: DPPH radical scavenging activity in liposome; format: functional

IC50 ([1]; read-out: IC50)	IC50 ([2]; read-out: IC50)	SMILES	IC50 [1]	IC50 [2]
7.3 µM	7.4 µM	COc1cc(C(=O)O)cc(OC)c1O [SYRINGIC ACID]		
		COc1cc(C(=O)O)cc(OC)c1OC [3,4,5-TRIMETHOXYBENZOIC ACID]	Not Active	Not Active
7.2 µM	8.4 µM	COC(=O)c1cc(O)c(O)c(O)c1 [GALLIC ACID METHYL ESTER]		
		COc1cc(C(=O)O)cc(O)c1OC	Not Active	Not Active

SMILES	IC50 ([1]; read-out: IC50)	IC50 ([2]; read-out: IC50)	IC50 [1]	IC50 [2]
O=C(O)c1cc(O)c(O)c(O)c1 [GALLIC ACID]	6 µM	7.3 µM		
